According to US10711041B2, “Lyophilisate containing a cyclic peptide of formula X1-[sequence]-X2” (priority 2013, dated 2020):

Legend:
[1] = Concentration in lung tissue and blood after aerosol inhalation, rat; assay type: in vivo; conditions: after inhalation of aerosol
Experimental: The proof of a cyclic peptide of amino acid sequence SEQ ID NO:1 to SEQ ID NO:6 may take place in lung tissue of rats. For that exemplarily an aerosol was produced with a nebulizer from an aqueous solution of the cyclic peptide of amino acid sequence SEQ ID NO:1. The aerosol was inhaled by the experimental animal (72 mg/kg body weight). After termination of aerosol inhalation, the lung tissue, as well as the blood of the experimental animal was examined. By means of reverse HPLC/MS the concentration of the cyclic peptide of amino acid sequence SEQ ID NO:1 was determined Exemplarily, the cyclic peptide of amino acid sequence SEQ ID NO:1 could be detected in the lung tissue in a concentration of 1.2 μm/g after inhalation of 72 mg/kg body weight in sum. In contrast to that the cyclic peptide of amino acid sequence SEQ ID NO:1 could not be detected in the blood up to a detection limit of 0.1 μm/ml.

[2] = biological target: T1, amilorid-sensitive Sodium Ion Channel (ENaC) (Homo sapiens, UniProt P37088); experiment: Biological activity of condensed aerosol by Patch Clamp in A549 cells; assay type: cell-based; conditions: Mesh-Type nebulizer, aerosol condensed in cooling trap
T1 construct: Macroscopic Sodium Ion Currents were derived from human lung epithelian cells A549; endogenous in cells; host or cells: A549 human lung epithelial cells
T1 sequence (P37088 1-669): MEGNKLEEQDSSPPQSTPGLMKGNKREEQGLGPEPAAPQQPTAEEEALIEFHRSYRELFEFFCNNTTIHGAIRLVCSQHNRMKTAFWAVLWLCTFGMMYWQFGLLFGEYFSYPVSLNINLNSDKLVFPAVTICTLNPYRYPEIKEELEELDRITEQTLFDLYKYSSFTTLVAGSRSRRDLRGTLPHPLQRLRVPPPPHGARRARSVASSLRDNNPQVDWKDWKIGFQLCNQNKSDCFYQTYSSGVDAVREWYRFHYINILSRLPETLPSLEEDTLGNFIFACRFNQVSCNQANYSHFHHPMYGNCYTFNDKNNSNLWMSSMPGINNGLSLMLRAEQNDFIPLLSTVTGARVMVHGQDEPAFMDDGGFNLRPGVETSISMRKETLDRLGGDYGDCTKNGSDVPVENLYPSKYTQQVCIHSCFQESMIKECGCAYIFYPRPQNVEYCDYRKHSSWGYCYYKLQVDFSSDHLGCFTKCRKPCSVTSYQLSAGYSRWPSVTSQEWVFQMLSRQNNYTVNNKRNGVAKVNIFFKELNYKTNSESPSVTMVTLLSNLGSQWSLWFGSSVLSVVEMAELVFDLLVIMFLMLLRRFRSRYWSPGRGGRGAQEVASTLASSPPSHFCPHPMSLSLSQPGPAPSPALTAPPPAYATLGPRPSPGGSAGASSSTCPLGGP
T1 sequence (P51168 1-640 partner): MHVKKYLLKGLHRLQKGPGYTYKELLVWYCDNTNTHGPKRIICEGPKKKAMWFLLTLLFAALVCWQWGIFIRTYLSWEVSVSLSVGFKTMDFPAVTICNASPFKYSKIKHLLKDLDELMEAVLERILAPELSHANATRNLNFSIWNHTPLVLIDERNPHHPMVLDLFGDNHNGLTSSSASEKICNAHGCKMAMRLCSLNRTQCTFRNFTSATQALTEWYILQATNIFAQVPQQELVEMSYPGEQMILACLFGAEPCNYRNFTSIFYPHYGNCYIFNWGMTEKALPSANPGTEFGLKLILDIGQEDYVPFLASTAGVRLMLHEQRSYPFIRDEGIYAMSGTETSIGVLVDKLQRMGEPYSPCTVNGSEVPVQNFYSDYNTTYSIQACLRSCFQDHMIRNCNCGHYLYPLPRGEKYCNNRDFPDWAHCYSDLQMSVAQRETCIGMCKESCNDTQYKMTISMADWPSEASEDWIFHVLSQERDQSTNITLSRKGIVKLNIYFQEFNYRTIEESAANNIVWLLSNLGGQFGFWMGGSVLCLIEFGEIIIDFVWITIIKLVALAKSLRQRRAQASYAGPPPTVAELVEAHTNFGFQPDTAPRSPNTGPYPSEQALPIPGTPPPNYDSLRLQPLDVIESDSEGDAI
T1 sequence (P51170 1-649 partner): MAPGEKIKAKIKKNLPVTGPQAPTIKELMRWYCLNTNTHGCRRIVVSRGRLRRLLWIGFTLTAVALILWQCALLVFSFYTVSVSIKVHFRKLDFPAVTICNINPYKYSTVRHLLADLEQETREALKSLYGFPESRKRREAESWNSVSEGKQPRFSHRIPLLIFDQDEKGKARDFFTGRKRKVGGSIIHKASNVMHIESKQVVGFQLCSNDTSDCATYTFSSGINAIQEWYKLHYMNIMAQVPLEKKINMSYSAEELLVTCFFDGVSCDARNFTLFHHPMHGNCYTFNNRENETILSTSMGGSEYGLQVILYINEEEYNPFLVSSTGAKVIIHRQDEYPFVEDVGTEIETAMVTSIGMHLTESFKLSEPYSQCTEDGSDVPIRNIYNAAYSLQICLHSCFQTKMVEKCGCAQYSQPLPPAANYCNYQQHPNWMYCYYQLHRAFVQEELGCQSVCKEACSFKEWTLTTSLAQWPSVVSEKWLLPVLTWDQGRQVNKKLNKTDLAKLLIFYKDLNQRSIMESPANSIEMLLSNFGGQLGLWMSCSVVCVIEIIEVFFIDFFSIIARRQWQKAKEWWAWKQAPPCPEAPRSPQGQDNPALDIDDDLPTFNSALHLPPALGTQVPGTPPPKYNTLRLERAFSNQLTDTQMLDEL
Experimental: Since proteins and peptides occasionally may be rather unstable, it was investigated, whether the cyclic peptides of amino acid sequence SEQ ID NO:1 to SEQ ID NO:6 in dissolved preparation during conversion into an aerosol remain stable. For that the cyclic peptides were dissolved in water as described in example 4. After filling into the storage container of a nebulizer the aqueous solution of the cyclic peptides were converted into an aerosol. For that a “Mesh-Type” nebulizer was used. The biological activity of the collected aerosols was determined by means of the Patch Clamp method. Thereby macroscopic currents of A549 cells were deduced in the “whole cell” configuration of the “Patch-clamp” technique, as described under “Electrophysiological Investigations of the Amilorid-sensitive Sodium Ion Channel (ENaC)”.

[3] = Stability investigation of the lyophilisate (visual inspection, reverse HPLC); assay type: physicochemical
Experimental: For that the lyophilisate was stored up to 24 months at 2 to 8° C. and up to 6 months at 25° C. at 60% relative humidity. Stability was investigated at different time points during that period. In particular the appearance, contents, as well as purity of the cyclic peptides were investigated. For that laboratory-common analytical processes were used, such as e.g. visual inspection and reverse HPLC.

For `C[C@@H]1NC(=O)CNC(=O)[C@H](CCC(=O)O)NC(=O)[C@@H]2CCCN2C(=O)[C@H]([C@@H](C)O)NC(=O)[C@H](CCC(=O)O)NC(=O)[C@H](CCCNC(=N)N)NC(=O)[C@H](CCC(N)=O)NC(=O)CNC(=O)[C@@H](N)CSSC[C@@H](C(=O)O)NC(=O)[C@H](Cc2ccc(O)cc2)NC(=O)[C@H](Cc2c[nH]c3ccccc23)NC(=O)[C@@H]2CCCN2C(=O)[C@H](CCCCN)NC(=O)[C@H](C)NC(=O)[C@H](CCC(=O)O)NC1=O` [SEQ ID NO: 1], the “concentration in lung tissue” value ([1]; 72 mg/kg body weight in sum) was 1.2 μm/g, the concentration in blood ([1]; 72 mg/kg, detection limit) was less than 0.1 μm/ml and the “biological stability during transformation into an aerosol” value [2] was “keeps its biological, as well as its chemical stability”. The Amount/Contents of lyophilisate ([3]; storage 2-8° C., T = 0) was 100%, the “Purity of lyophilisate (stability study)” value ([3]; storage 2-8° C., T = 0) was 96% and the Appearence of lyophilisate ([3]; storage 2-8° C., T = 0 to T = 24 M) was “white powder”. The Amount/Contents of lyophilisate ([3]; storage 2-8° C., T = 24 M) was 99%, the “Purity of lyophilisate (stability study)” value ([3]; storage 2-8° C., T = 24 M) was 96% and the Amount/Contents of lyophilisate ([3]; storage 25° C./60% rH, T = 0) was 100%. For the same molecule, the “Purity of lyophilisate (stability study)” value ([3]; storage 25° C./60% rH, T = 0) was 96%, the Appearence of lyophilisate ([3]; storage 25° C./60% rH, T = 0 to T = 6 M) was “white powder” and the Amount/Contents of lyophilisate ([3]; storage 25° C./60% rH, T = 6 M) was 99%. The “Purity of lyophilisate (stability study)” value ([3]; storage 25° C./60% rH, T = 6 M) was 95%.
